What was measured:
Type in all cases: cell-based, human
CD4+ T cells [1] = experiment: IFN-I/III quantification (LEGENDplex) in CD4+ T cells, baseline or after STING stimulation
Method: Plasmapheresis blood pockets were obtained from healthy adult volunteers after informed consent from the EFS (Establishment of French blood collection). Peripheral blood mononuclear cells (PBMCs) were isolated using Ficoll-Paque Plus (GE-17144003) and left overnight at 4° C. in RPMI (Thermo fischer #61870-010) with 10% heat-decomplemented fetal bovine serum (FBS, Eurobio #CVFSVFO0-01). CD14+ cells were enriched by positive selection (Miltenyi #130-050-201), the CD14 negative fraction was subsequently used to isolate total CD4+ T cells by negative selection (Stem Cell #17952). CD14+ cells were cultured in RPMI containing 10% FBS, 5% Penicillin-Streptomycin (PS, Thermo Fisher #10378-016), 50 μg/ml Gentamicin (Thermo Fisher #15750-045) and 10 mM HEPES (Thermo Fisher #15630-056). CD14+ cells were differentiated ex vivo into MDDC by supplementing the culture media with 50 ng/ml IL-4 (Miltenyi #130-093-922) and 10 ng/ml GM-CSF (Miltenyi #130-093-867). MDDC were used for experiments 3 or 4 days following the start of the culture. CD14+ cells were differentiated ex vivo into macrophages by adding 50 ng/ml MCSF (Miltenyi #130-096-492) to the culture media containing RPMI with 1% PS, 5% FBS and 5% human serum (Sigma #H4522). MDM were used 7 days following culture. Freshly isolated CD4+ T cells were cultured in X-VIVO 15 (Lonza #BE02-060F) and activated using anti-CD3 and anti-CD28 Dynabeads (fisher scientific #10548353) at the ratio of 1:5 (bead:cell). 100 U/ml human IL-2 (Immunotools #11340027) was added to cultures 2 days following TCR stimulation and media with IL-2 was replenished every 48 hours. To assess proliferation, freshly isolated CD4+ T cells were stained with cell proliferation dye (thermo fischer #65-0840-85) prior to TCR stimulation.
CD14+ cells were plated at 1 million cells/ml and transduced with equal volumes of freshly harvested SIV-VLPs and pTRIP-SFFV vectors in the presence of 8 μg/ml protamine (Sigma #P4020). CD4+ T cells were transduced with lentivectors 24 hours post-TCR stimulation in 100 μl of cells (0.2 million cells) and 100 μl of freshly harvested lentivirus in the presence of 8 μg/ml protamine. T cells were spinoculated at 1200 g for 2 hours at 25° C. 0.5 million THP-1 cells in 500 μl media (RPMI 10% FBS 1% PS) were transduced with 500 μl freshly harvested lentivirus in the presence of 8 μg/ml protamine. 1 μg/ml Puromycin (Invivogen #ant-pr-1) was added 2 days post-transduction when cells were transduced with pLKO.1-puro plasmid.
For stimulation of STING by extracellular ligands, 2.5 μg of ADUS100 (invivogen #tlrl-nacda2r-01) or 2′3′-cGAMP (cGAMP, invivogen #tlrl-nacga23-02) was added to 100,000 cells in 100 μl media either on freshly isolated primary cells or 3-4 days post differentiation for MDDC and 3 days post-TCR stimulation for CD4+ T cells. Cells and supernatant were harvested 18-24 hours post stimulation. For delivery of STING ligands after permeabilization, T cells were used 3 or 4 days post TCR stimulation and MDDC were used 3-4 days following differentiation. 150,000 cells were plated in round bottom 96-well plate. Media was removed by centrifugation and 20 μl 2× permeabilization buffer (100 mM HEPES, 200 mM KCl, 6 mM MgCl2, 0.2 mM DTT, 170 mM Sucrose, 2 mM ATP, 2 mM GTP, 0.4% bovine serum albumin (BSA), 20 μg/ml digitonin) and 20 μl cGAMP (12 μg/ml) was added to cells. 18 to 20 hours following stimulation supernatants and cells were harvested. Cells were stained with a fixable viability dye (Invitrogen #65-0865-14) and acquired on a FACSVerse (BD). […]
Where indicated, cells were treated with 5-Azacytidine (5AZA, Sigma #A2385) 48 hours prior to cGAMP stimulation. Fresh 5AZA was added daily to cells, and media was replenished with 5AZA following cGAMP stimulation. 100 nM Trichostatin A (TSA) (sigma #T1952) was added to cells following cGAMP stimulation and left overnight. […]

[2] = tested on: STING, TBK1, IRF3, RELA, IRF7; experiment: Western blot of key signaling proteins involved in STING signaling; conditions: 6 hours after cGAMP 6 μg/ml, FIG. 1G
Method: 0.5 million cells were lysed for 30 minutes on ice in 50 μl RIPA buffer (50 mM Tris HCl, 150 mM NaCl, 0.1% SDS, 0.5% DOC, 1% NP-40) with Protease inhibitor (Roche #1187358001). To evaluate, phospho-proteins 50 mM NaF and 1 mM sodium orthovanadate were added to the lysis buffer. Protein lysates were cleared by centrifugation at 12,000 g for 10 to 12 minutes at 4° C. 10 μl of 6× Laemmli buffer (fisher scientific #J61337) was added to 50 μl protein lysates and samples were boiled at 95° C. for 15 minutes. Protein samples were resolved on 4%-20% Biorad precast SDS-PAGE gels (#5671125) and transferred onto PVDF membranes (BioRad #1704157). Membranes were blocked in 5% non-fat dry milk in PBS 0.1% tween or in TBS 5% BSA 0.1% Tween to detect phosphorylated proteins. Primary antibodies were used at 1:1000:phospho-STING (clone-D7C3S), STING (clone-D2P2F), serine 172 phospho-TBK1 (clone-D52C2), TBK1 (clone-D11B4), serine 396 phospho IRF3 (clone-D6O1M), IRF3 (clone-D83B9), RELA (clone-C22B4), IRF7 (clone-12G9A36), cGAS (clone-D1 D3G), Actin (clone-C4), Sendai viral proteins (Biozol #MBL-PD029). Secondary anti-rabbit or anti-mouse antibody were used at 1:10,000 (santa cruz #sc-2357, #sc-516102). ECL signal (Biorad #1705061 and #1705062) was recorded on a ChemiDoc Touch Biorad Imager. Data was analyzed and quantified with Image Lab software (Biorad). In figures, dotted lines indicate reordering of lanes from a single original membrane for visualization purpose.

CD4+ T cells [3] = experiment: Bulk RNAseq of activated CD4+ T cells after cGAMP; conditions: five hours after cGAMP 6 μg/ml
Method: Five hours following cGAMP (6 μg/ml) stimulation of activated CD4+ T cells, total RNA was extracted (Macherey-Nagel #740955.50). […] RNA sequencing libraries were prepared from 500 ng of total RNA using the Illumina TruSeq Stranded mRNA Library preparation kit. A first step of polyA selection using magnetic beads was performed to focus sequencing on polyadenylated transcripts. After fragmentation, cDNA synthesis was performed and resulting fragments were used for dA-tailing and ligated to the TruSeq indexed adapters. PCR amplification was performed to create the final cDNA library (with 13 cycles). After quantification of PCR products, sequencing was carried out using 2*100 cycles (paired-end reads, 100 nucleotides) on a Novaseq6000 instrument, targeting 25M clusters. The data was aligned to the hg19 (ENSEMBL annotation: v.74) genome using the RNA-seq pipeline of the Curie bioinformatics platform, rnaseq v3.1.1. Reads were trimmed with TrimGalore (v.0.6.2) and aligned on the reference genome using STAR (v 2.6.1) ^71. Quality control was done with picard (v.2.18.15), RSeQC (v.2.6.4) and preseq (v.2.0.3)^72. Read counts were generated with STAR. Quality reports were generated with MultiQC (v.1.7). […]

Nc1nc2c(ncn2[C@@H]2O[C@@H]3COP(=O)(O)O[C@H]4[C@@H](O)[C@H](n5cnc6c(N)ncnc65)O[C@@H]4COP(=O)(O)O[C@@H]2[C@@H]3O)c(=O)[nH]1 [cGAMP, 2′3′-cGAMP, reference compound]
IFNβ protein (CD4+ T cells [1]; cGAMP delivered by digitonin-mediated membrane permeabilization, FIG. 1F): undetectable | IFN response to STING ligands (CD4+ T cells [1]; resting blood CD4+ T cells, soluble ligand 1 μg or 2.5 μg, FIG. 1B): undetectable | phosphorylated levels of STING, TBK1 and IRF3, CD4+ T cells versus MDDC [2]: identical | IRF7 expression (RNAseq) (CD4+ T cells [3]): induced

Reference: patent US20250213614A1, “Modified RELA Protein for Inducing Interferon Expression and Engineered Immune Cells with Improved Interferon Expression” (Institut Curie, priority 2022, published 2025)
